Source: patent publication US20230278972A1, “SUBSTITUTED HALOALKYL SULFONANILIDE HERBICIDES” (FMC Corporation, priority 2020, published 2023)

Experiments:
Assay type in all cases: in vivo
[1] = tested on: barnyardgrass (Echinochloa crus-galli); assay: Test A preemergence, barnyardgrass; conditions: Preemergence; for Plant response rating, Barnyardgrass: 0 to 100 scale (0 no effect, 100 complete control); for Barnyardgrass plant response rating: 125 g ai/ha, visual injury on 0 to 100 scale (0 no effect, 100 complete control), approximately 10 days
In short: (§1)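 Greenhouse pot test in a loam–sand blend; compounds delivered in a non-phytotoxic solvent carrying a surfactant, applied either as a directed spray to soil at seeding or over seedlings 2 to 10 cm high with one to two leaves.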

kochia (Bassia scoparia) [2] = assay: Test A preemergence, kochia; conditions: Preemergence; for Plant response rating, Kochia: 0 to 100 scale (0 no effect, 100 complete control); for Kochia plant response rating: 125 g ai/ha, visual injury on 0 to 100 scale (0 no effect, 100 complete control), approximately 10 days
In short: as §1

[3] = tested on: ragweed (common ragweed, Ambrosia artemisiifolia); assay: Test A preemergence, ragweed; conditions: Preemergence; for Plant response rating, Ragweed: 0 to 100 scale (0 no effect, 100 complete control); for Ragweed plant response rating: 125 g ai/ha, visual injury on 0 to 100 scale (0 no effect, 100 complete control), approximately 10 days
In short: as §1

[4] = tested on: Ryegrass, Italian (Italian ryegrass, Lolium multiflorum); assay: Test A preemergence, Ryegrass, Italian; conditions: Preemergence; for Plant response rating, Ryegrass, Italian: 0 to 100 scale (0 no effect, 100 complete control); for Ryegrass, Italian plant response rating: 125 g ai/ha, visual injury on 0 to 100 scale (0 no effect, 100 complete control), approximately 10 days
In short: as §1

[5] = tested on: Foxtail, Giant (giant foxtail, Setaria faberi); assay: Test A preemergence, Foxtail, Giant; conditions: Preemergence; for Foxtail, Giant plant response rating: 125 g ai/ha, visual injury on 0 to 100 scale (0 no effect, 100 complete control), approximately 10 days; for Plant response rating, Foxtail, Giant: 0 to 100 scale (0 no effect, 100 complete control)
In short: as §1

[6] = tested on: pigweed (Amaranthus retroflexus); assay: Test A preemergence, pigweed; conditions: for Plant response rating, Pigweed: 0 to 100 scale (0 no effect, 100 complete control); for Pigweed plant response rating: 125 g ai/ha, visual injury on 0 to 100 scale (0 no effect, 100 complete control), approximately 10 days
In short: (§2)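 Formulated with a surfactant in a non-phytotoxic solvent, compounds are applied to loam–sand pots, either to bare soil immediately after seeding (preemergence) or to seedlings of 2 to 10 cm bearing one to two leaves (postemergence).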

[7] = tested on: barnyardgrass (Echinochloa crus-galli); assay: Test A postemergence, barnyardgrass; conditions: Postemergence, 0 to 100 scale (0 no effect, 100 complete control); for Barnyardgrass plant response rating: 500 g ai/ha, visual injury vs untreated controls after approx. 10 days
In short: as §2

kochia (Bassia scoparia) [8] = assay: Test A postemergence, kochia; conditions: Postemergence; for Kochia plant response rating: 500 g ai/ha, visual injury vs untreated controls after approx. 10 days
In short: as §1

[9] = tested on: ragweed (common ragweed, Ambrosia artemisiifolia); assay: Test A postemergence, ragweed; conditions: Postemergence; for Ragweed plant response rating: 500 g ai/ha, visual injury vs untreated controls after approx. 10 days
In short: as §1

[10] = tested on: Ryegrass, Italian (Italian ryegrass, Lolium multiflorum); assay: Test A postemergence, Ryegrass, Italian; conditions: Postemergence; for Ryegrass, Italian plant response rating: 500 g ai/ha, visual injury vs untreated controls after approx. 10 days
In short: as §1

[11] = tested on: Foxtail, Giant (giant foxtail, Setaria faberi); assay: Test A postemergence, Foxtail, Giant; conditions: Postemergence; for Foxtail, Giant plant response rating: 500 g ai/ha, visual injury vs untreated controls after approx. 10 days
In short: as §1

[12] = tested on: pigweed (Amaranthus retroflexus); assay: Test A postemergence, pigweed; conditions: Postemergence; for Pigweed plant response rating: 500 g ai/ha, visual injury vs untreated controls after approx. 10 days
In short: as §1

[13] = tested on: wheat (Triticum aestivum); assay: Test A postemergence, wheat; conditions: Postemergence; for Wheat plant response rating: 500 g ai/ha, visual injury vs untreated controls after approx. 10 days
In short: as §2

corn (Zea mays) = assay: Test A postemergence, corn; conditions: Postemergence; for Corn plant response rating: 500 g ai/ha, visual injury vs untreated controls after approx. 10 days
In short: as §1

[14] = tested on: blackgrass (Alopecurus myosuroides); assay: Test A postemergence, blackgrass; conditions: Postemergence, 0 to 100 scale (0 no effect, 100 complete control); for Blackgrass plant response rating: 500 g ai/ha, visual injury vs untreated controls after approx. 10 days
In short: as §1

[15] = tested on: galium (catchweed bedstraw, Galium aparine); assay: Test A postemergence, galium; conditions: Postemergence; for Galium plant response rating: 500 g ai/ha, visual injury vs untreated controls after approx. 10 days
In short: as §2

[16] = 31 g ai/ha, visual injury, approx. 10 days
[17] = 125 g ai/ha, visual injury approx. 10 days
[18] = 31 g ai/ha, visual injury on 0 to 100 scale (0 no effect, 100 complete control), approx. 10 days
[19] = 125 g ai/ha, visual injury approx. 10 days, 0 to 100 scale (0 no effect, 100 complete control)
[20] = 0 to 100 scale (0 no effect, 100 complete control)

Structure (SMILES)	Plant response rating, Barnyardgrass [1, 16]	Barnyardgrass plant response rating [1]	Plant response rating, Kochia (kochia (Bassia scoparia) [2]; [16])	Kochia plant response rating (kochia (Bassia scoparia) [2])	Plant response rating, Ragweed [3, 16]	Ragweed plant response rating [3]	Plant response rating, Ryegrass, Italian [4, 16]	Ryegrass, Italian plant response rating [4]	Foxtail, Giant plant response rating [5]	Pigweed plant response rating [6]	Plant response rating, Barnyardgrass [7, 17]	Plant response rating, Kochia (kochia (Bassia scoparia) [8]; [19])	Plant response rating, Ragweed [9, 19]	Plant response rating, Ryegrass, Italian [10, 19]	Plant response rating, Foxtail, Giant [11, 19]	Plant response rating, Pigweed [12, 19]	Plant response rating, Wheat [13, 19]	Plant response rating, Corn (corn (Zea mays); [19])	Plant response rating, Blackgrass [14, 17]	Plant response rating, Galium [15, 19]	also measured
Cc1cc(C)c(C(=O)N2COC(C)(C)C2)cc1NS(=O)(=O)C(F)(F)F [Compound 112]	20	30	10	60	30	90	0	30	50	100	70	30	90	60	50	60	40	20	30	90	Plant response rating, Pigweed [6, 16]: 50; Plant response rating, Barnyardgrass ([7]; 31 g ai/ha): 40; Plant response rating, Kochia (kochia (Bassia scoparia) [8]; [18]): 20; Plant response rating, Ragweed [9, 18]: 80; Plant response rating, Ryegrass, Italian [10, 18]: 0; Plant response rating, Foxtail, Giant [11, 18]: 10; Plant response rating, Pigweed [12, 18]: 50; Plant response rating, Wheat [13, 18]: 0; Plant response rating, Corn (corn (Zea mays); [18]): 0; Plant response rating, Blackgrass ([14]; 31 g ai/ha): 0; Plant response rating, Galium [15, 18]: 90
COC1CCN(C(=O)c2cc(NS(=O)(=O)C(F)(F)F)c(C)cc2C)C1 (stereo not drawn) [Compound 113]	0	20	10	50	0	60	0	80	60	90	80	50	90	50	30	90	20	0	0	80	Plant response rating, Foxtail, Giant [5, 16]: 10; Plant response rating, Pigweed [6, 16]: 30; Plant response rating, Barnyardgrass ([7]; 31 g ai/ha): 20; Plant response rating, Kochia (kochia (Bassia scoparia) [8]; [18]): 10; Plant response rating, Ragweed [9, 18]: 80; Plant response rating, Ryegrass, Italian [10, 18]: 20; Plant response rating, Foxtail, Giant [11, 18]: 0; Plant response rating, Pigweed [12, 18]: 80; Plant response rating, Wheat [13, 18]: 0; Plant response rating, Corn (corn (Zea mays); [18]): 0; Plant response rating, Blackgrass ([14]; 31 g ai/ha): 0; Plant response rating, Galium [15, 18]: 70
COC(=O)N(c1cc(C(=O)N2CCCC(OC)C2)c(C)cc1C)S(=O)(=O)C(F)(F)F (stereo not drawn) [Compound 115]	50	100	0	40	0	20	70	90	100	90	50	30	50	40	30	60	60	0	0	90	Plant response rating, Foxtail, Giant [5, 16]: 100; Plant response rating, Pigweed [6, 16]: 100; Plant response rating, Barnyardgrass ([7]; 31 g ai/ha): 10; Plant response rating, Kochia (kochia (Bassia scoparia) [8]; [18]): 20; Plant response rating, Ragweed [9, 18]: 30; Plant response rating, Ryegrass, Italian [10, 18]: 0; Plant response rating, Foxtail, Giant [11, 18]: 0; Plant response rating, Pigweed [12, 18]: 30; Plant response rating, Wheat [13, 18]: 40; Plant response rating, Corn (corn (Zea mays); [18]): 0; Plant response rating, Blackgrass ([14]; 31 g ai/ha): 0; Plant response rating, Galium [15, 18]: 80
Cc1cc(C)c(N(S(=O)(=O)C(F)(F)F)S(=O)(=O)C(F)(F)F)cc1C(=O)N1CCCC(F)C1 (stereo not drawn) [Compound 118]	0	90	0	0	50	100	40	80	100	100	90	40	80		30	90	40	0	10	90	Plant response rating, Foxtail, Giant [5, 16]: 80; Plant response rating, Pigweed [6, 16]: 100; Plant response rating, Barnyardgrass ([7]; 31 g ai/ha): 10; Plant response rating, Kochia (kochia (Bassia scoparia) [8]; [18]): 10; Plant response rating, Ragweed [9, 18]: 20; Plant response rating, Ryegrass, Italian [10, 18]: 0; Plant response rating, Foxtail, Giant [11, 18]: 0; Plant response rating, Pigweed [12, 18]: 30; Plant response rating, Wheat [13, 18]: 0; Plant response rating, Corn (corn (Zea mays); [18]): 0; Plant response rating, Blackgrass ([14]; 31 g ai/ha): 20; Plant response rating, Galium [15, 18]: 40
COC1CCCN(C(=O)c2cc(N(S(=O)(=O)C(F)(F)F)S(=O)(=O)C(F)(F)F)c(C)cc2C)C1 (stereo not drawn) [Compound 119]		100		50		80		80	100	100	40	20	70	20	30	40	10	10	0	80	Plant response rating, Barnyardgrass ([1]; 500 g ai/ha): 100; Plant response rating, Kochia (kochia (Bassia scoparia) [2]; 500 g ai/ha): 100; Plant response rating, Ragweed ([3]; 500 g ai/ha): 100; Plant response rating, Ryegrass, Italian ([4]; 500 g ai/ha): 100; Plant response rating, Foxtail, Giant ([5]; 500 g ai/ha): 100; Plant response rating, Pigweed ([6]; 500 g ai/ha): 100; Barnyardgrass plant response rating [7]: 90; Kochia plant response rating (kochia (Bassia scoparia) [8]; [20]): 60; Ragweed plant response rating [9, 20]: 90; Ryegrass, Italian plant response rating [10, 20]: 90; Foxtail, Giant plant response rating [11, 20]: 80; Pigweed plant response rating [12, 20]: 70; Wheat plant response rating [13, 20]: 70; Corn plant response rating (corn (Zea mays); [20]): 30; Blackgrass plant response rating [14]: 40; Galium plant response rating [15, 20]: 90
Cc1cc(C)c(C2=NOC3(C2)CC(C)(C)CC(C)(C)C3)cc1NS(=O)(=O)C(F)(F)F [Compound 122]		0		70		0		30	50	0	10	0	0	0	0	20	0	0	0	60	Plant response rating, Barnyardgrass ([1]; 500 g ai/ha): 70; Plant response rating, Kochia (kochia (Bassia scoparia) [2]; 500 g ai/ha): 30; Plant response rating, Ragweed ([3]; 500 g ai/ha): 0; Plant response rating, Ryegrass, Italian ([4]; 500 g ai/ha): 80; Plant response rating, Foxtail, Giant ([5]; 500 g ai/ha): 100; Plant response rating, Pigweed ([6]; 500 g ai/ha): 30; Barnyardgrass plant response rating [7]: 70; Kochia plant response rating (kochia (Bassia scoparia) [8]; [20]): 10; Ragweed plant response rating [9, 20]: 0; Ryegrass, Italian plant response rating [10, 20]: 0; Foxtail, Giant plant response rating [11, 20]: 20; Pigweed plant response rating [12, 20]: 50; Wheat plant response rating [13, 20]: 0; Corn plant response rating (corn (Zea mays); [20]): 0; Blackgrass plant response rating [14]: 10; Galium plant response rating [15, 20]: 90
Cc1cc(C)c(C2=NOC3CCCCC23)cc1NS(=O)(=O)C(F)(F)F (stereo not drawn) [Compound 123]		100		40		50		90	100	90	90	50	50	50	30	60	50	10	20	80	Plant response rating, Barnyardgrass ([1]; 500 g ai/ha): 100; Plant response rating, Kochia (kochia (Bassia scoparia) [2]; 500 g ai/ha): 80; Plant response rating, Ragweed ([3]; 500 g ai/ha): 80; Plant response rating, Ryegrass, Italian ([4]; 500 g ai/ha): 100; Plant response rating, Foxtail, Giant ([5]; 500 g ai/ha): 100; Plant response rating, Pigweed ([6]; 500 g ai/ha): 100; Barnyardgrass plant response rating [7]: 90; Kochia plant response rating (kochia (Bassia scoparia) [8]; [20]): 70; Ragweed plant response rating [9, 20]: 70; Ryegrass, Italian plant response rating [10, 20]: 50; Foxtail, Giant plant response rating [11, 20]: 80; Pigweed plant response rating [12, 20]: 80; Wheat plant response rating [13, 20]: 60; Corn plant response rating (corn (Zea mays); [20]): 70; Blackgrass plant response rating [14]: 50; Galium plant response rating [15, 20]: 90
